Data taken from the supplement of paper PMC10307832.

Tests used:
Test in all cases: relative viability (nuclei count vs DMSO), 5 days (fraction); higher = more cells survive
MK-8033 + Foretinib = compound: Cn1cc(-c2cnc3ccc4ccc(CS(=O)(=O)NCc5ccccn5)cc4c(=O)c3c2)cn1 [MK-8033] + COc1cc2c(Oc3ccc(NC(=O)C4(C(=O)Nc5ccc(F)cc5)CC4)cc3F)ccnc2cc1OCCCN1CCOCC1 [Foretinib] (partner 0.25 µM)
Method in brief: (§1)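 Each reported value is a median over duplicate plates. It expresses relative viability: treated-well nuclei count divided by vehicle-well nuclei count. Lung cancer cell lines in 1536-well plates were dosed by pin tool a day after seeding, alone with one drug or with a fixed anchor-drug dose plus five library-drug doses (not always all listed) in √10 steps, and nuclei were counted after 5 days.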

Irinotecan + AZD7762 = compound: CCc1c2c(nc3ccc(OC(=O)N4CCC(N5CCCCC5)CC4)cc13)-c1cc3c(c(=O)n1C2)COC(=O)[C@]3(O)CC [Irinotecan] + NC(=O)Nc1cc(-c2cccc(F)c2)sc1C(=O)N[C@H]1CCCNC1 [AZD7762] (partner 0.2 µM)
Method in brief: as §1

RU-SKI 43 + Pemetrexed = compound: CC[C@@H](C)CNCC(=O)N1CCC2=C([C@@H]1COC3=CC=CC(=C3)C)C=CS2 [RU-SKI 43] + Nc1nc2[nH]cc(CCc3ccc(C(=O)N[C@@H](CCC(=O)O)C(=O)O)cc3)c2c(=O)[nH]1 [Pemetrexed] (partner 0.2 µM)
Method in brief: as §1

MK-8033 + Dasatinib = compound: Cn1cc(-c2cnc3ccc4ccc(CS(=O)(=O)NCc5ccccn5)cc4c(=O)c3c2)cn1 [MK-8033] + Cc1nc(Nc2ncc(C(=O)Nc3c(C)cccc3Cl)s2)cc(N2CCN(CCO)CC2)n1 [Dasatinib] (partner 0.075 µM)
Method in brief: as §1

Row | Cell Line | relative viability (MK-8033 + Foretinib; first compound 0.02 µM) | relative viability (MK-8033 + Foretinib; first compound 0.2 µM) | relative viability (MK-8033 + Foretinib; first compound 0.6325 µM) | relative viability (MK-8033 + Foretinib; first compound 2 µM) | relative viability (Irinotecan + AZD7762; first compound 0.6325 µM) | relative viability (Irinotecan + AZD7762; first compound 2 µM) | relative viability (Irinotecan + AZD7762; first compound 6.325 µM) | relative viability (Irinotecan + AZD7762; first compound 20 µM) | relative viability (RU-SKI 43 + Pemetrexed; first compound 0.1 µM) | relative viability (RU-SKI 43 + Pemetrexed; first compound 0.3162 µM) | relative viability (RU-SKI 43 + Pemetrexed; first compound 1 µM) | relative viability (RU-SKI 43 + Pemetrexed; first compound 3.162 µM) | relative viability (RU-SKI 43 + Pemetrexed; first compound 10 µM) | relative viability (MK-8033 + Dasatinib; first compound 0.02 µM) | relative viability (MK-8033 + Dasatinib; first compound 0.2 µM) | relative viability (MK-8033 + Dasatinib; first compound 0.6325 µM) | relative viability (MK-8033 + Dasatinib; first compound 2 µM) | relative viability (MK-8033 + Foretinib; first compound 0.06325 µM) | relative viability (MK-8033 + Dasatinib; first compound 0.06325 µM)
1 | HCC-78 | 0.444 | 0.548 | 0.575 | 0.55 | 0.629 | 0.666 | 0.392 | 0.302 | 0.916 | 0.925 | 0.933 | 0.92 | 0.923 | 0.55 | 0.335 | 0.355 | 0.491 | – | –
2 | NCI-H441 | 0.842 | 0.967 | 0.968 | 0.896 | 0.964 | 0.411 | 0.277 | 0.288 | 0.28 | 0.273 | 0.277 | 0.255 | 0.219 | 0.511 | 0.494 | 0.835 | 0.405 | 1.02 | 0.603
3 | LU99A | 0.903 | 0.834 | 0.841 | 0.743 | 0.152 | 0.13 | 0.106 | 0.132 | 0.164 | 0.207 | 0.168 | 0.19 | 0.162 | 0.61 | 0.626 | 0.542 | 0.445 | 0.716 | 0.442
4 | NCI-H1651 | 0.844 | 0.879 | 0.692 | 0.648 | 0.234 | 0.368 | 0.172 | 0.15 | 0.556 | 0.701 | 0.744 | 0.557 | 0.59 | 0.412 | 0.285 | 0.433 | 0.388 | 0.637 | 0.331
5 | HARA | 0.772 | 0.884 | 0.548 | 0.997 | 0.2 | 0.278 | 0.154 | 0.255 | 0.265 | 0.264 | 0.259 | 0.277 | 0.254 | 0.28 | 0.223 | 0.188 | 0.258 | 0.781 | 0.255
6 | RERF-LC-KJ | 0.869 | 0.829 | 0.928 | 0.875 | 0.55 | 1.03 | 0.568 | 0.277 | 0.48 | 0.462 | 0.508 | 0.457 | 0.482 | 0.648 | 0.752 | 0.631 | 0.746 | 0.854 | 0.742
7 | LCLC-103H | 0.747 | 0.696 | 0.84 | 0.806 | 0.458 | 0.682 | 0.497 | 0.4 | 0.469 | 0.464 | 0.482 | 0.492 | 0.5 | 0.516 | 0.406 | 0.434 | 0.537 | 0.707 | 0.518
8 | LOU-NH91 | 0.94 | 0.906 | 0.878 | 0.9 | 0.719 | 0.756 | 0.421 | 0.156 | 0.399 | 0.345 | 0.456 | 0.389 | 0.378 | 0.534 | 0.537 | 0.57 | 0.544 | 0.583 | 0.388
9 | HCC-366 | 0.965 | 0.929 | 0.965 | 0.962 | 0.182 | 0.138 | 0.0668 | 0.0622 | 0.187 | 0.151 | 0.154 | 0.219 | 0.228 | 0.617 | 0.564 | 0.634 | 0.651 | 0.864 | 0.638
10 | CAL-12T | 1.05 | 1.03 | 1.09 | 1.11 | 0.676 | 0.564 | 0.453 | 0.29 | 1.16 | 1.36 | 1.39 | 1.2 | 1.22 | 0.478 | 0.405 | 0.367 | 0.456 | 1.14 | 0.3
11 | PC-3 [JPC-3] | 0.977 | 0.994 | 1 | 1.03 | 0.465 | 0.864 | 0.463 | 0.398 | 1.09 | 0.917 | 1.37 | 1.15 | 1.2 | 0.935 | 0.948 | 1.02 | 0.966 | 0.952 | 0.939
12 | NCI-H2087 | 1.03 | 0.889 | 1.16 | 0.957 | 0.586 | 0.387 | 0.242 | 0.226 | 0.684 | 0.762 | 0.714 | 0.694 | 0.692 | 0.95 | 0.754 | 0.763 | 0.772 | 1.11 | 0.852
13 | NCI-H1395 | 0.989 | 0.939 | 0.98 | 0.994 | – | 0.441 | 0.424 | 0.233 | 0.992 | 0.805 | 1.2 | 0.855 | 0.967 | 0.391 | 0.406 | 0.378 | 0.403 | 0.855 | 0.368
14 | PC-14 | 0.918 | 0.905 | 0.985 | 0.869 | 0.306 | 0.431 | 0.232 | 0.199 | 0.132 | 0.13 | 0.133 | 0.151 | 0.13 | 0.254 | 0.246 | 0.232 | 0.245 | 0.859 | 0.181
15 | ChaGo-K-1 | 0.891 | 1.05 | 0.967 | 0.628 | 0.584 | 0.542 | 0.27 | 0.204 | 0.268 | 0.299 | 0.249 | 0.284 | 0.265 | 0.603 | 0.527 | 0.66 | 0.641 | 0.834 | 0.588
16 | NCI-H1792 | – | – | – | – | 0.241 | 0.502 | 0.169 | 0.274 | 0.734 | 1.04 | 1.24 | 0.77 | 0.842 | 0.768 | 0.752 | 0.57 | 0.569 | – | 0.834
